Results taken from PubChem BioAssay (NCI).
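Protocol summary: plate cells (96-well), add compound at 5 concentrations, incubate 48 h, interpolate endpoints linearly. The concentration for 50% growth inhibition is given as GI50. Definition used: TGI = concentration required for complete inhibition of growth.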

Experiments:
Assay in all cases: NCI tumour cell line growth inhibition, 48 h
[1] = system: HL-60(TB) leukemia
[2] = system: HOP-62 NSCLC
[3] = system: SN12C renal
[4] = system: HCT-116 colon
[5] = system: UACC-62 melanoma
[6] = system: CCRF-CEM leukemia
[7] = system: A549 NSCLC
[8] = system: HCT-15 colon
[9] = system: SK-MEL-28 melanoma
[10] = system: ACHN renal

Structure (SMILES) | GI50 [1] [µM] | TGI [1] [µM] | GI50 [2] [µM] | TGI [2] [µM] | GI50 [3] [µM] | TGI [3] [µM] | GI50 [4] [µM] | TGI [4] [µM] | GI50 [5] [µM] | TGI [5] [µM] | GI50 [6] [µM] | TGI [6] [µM] | GI50 [7] [µM] | TGI [7] [µM] | GI50 [8] [µM] | TGI [8] [µM] | GI50 [9] [µM] | TGI [9] [µM] | GI50 [10] [µM] | TGI [10] [µM]
CCS(=O)(=O)c1ccc(OC)c(Nc2ncc(-c3cccc(-c4ccccc4F)c3)o2)c1 | > 25 | > 25 | > 19.9 | > 25 | 14.8 | > 25 | > 22.9 | > 25 | > 25 | > 25 | > 25 | > 25 | > 25 | > 25 | 16.8 | > 25 | > 25 | > 25 | 13.1 | > 25
NC1=NN(c2ccccc2)C(=O)C1C(=O)C(=O)NC1C2CC3CC(C2)CC1C3 (centres undefined) | – | > 100 | – | > 100 | – | > 100 | – | > 100 | – | > 100 | – | > 100 | – | > 100 | – | > 100 | – | > 100 | – | > 100
Cc1oncc1C(=O)Nc1ccc(C(F)(F)F)cc1 | 24.5 | > 100 | > 100 | > 100 | > 100 | > 100 | 15.6 | > 100 | 36 | > 100 | 17.8 | > 100 | 39.8 | > 100 | 14.1 | > 100 | 56.7 | > 100 | 41.7 | > 100
O=S1Cc2ccccc2CS1 (centres undefined) | – | 40.9 | – | – | – | 28.3 | – | 57.2 | – | 28.9 | – | – | – | > 100 | – | > 100 | – | 28.3 | – | > 100
C=CCOC1=C2CC[C@H](O)[C@@]2(C)CCC1=O | – | > 100 | – | > 100 | – | > 100 | – | > 100 | – | > 100 | – | > 100 | – | > 100 | – | > 100 | – | > 100 | – | > 100
Clc1cccc(Cn2cc(Cc3cn(Cc4cccc(Cl)c4)c4ccccc34)c3ccccc32)c1 | > 100 | > 100 | > 100 | > 100 | > 100 | > 100 | > 100 | > 100 | > 100 | > 100 | > 100 | > 100 | > 100 | > 100 | > 100 | > 100 | > 100 | > 100 | > 100 | > 100
C[C@@]12CCC[C@@](C)(C(=O)O)C1CC[C@]13C=C(CO)[C@](O)(CCC12)C3 (some centres undefined) | > 100 | > 100 | > 100 | > 100 | > 100 | > 100 | > 100 | > 100 | > 100 | > 100 | 65.9 | > 100 | > 100 | > 100 | > 100 | > 100 | > 100 | > 100 | > 100 | > 100
Cc1ccc(NC(=O)C2C(=O)C(=O)N(c3ccc(C)cc3)C2=O)cc1 (centres undefined) | – | > 100 | – | > 100 | – | > 100 | – | > 100 | – | > 100 | – | > 100 | – | > 100 | – | > 100 | – | – | – | > 100
O=C(Nc1cccc(-n2cc(-c3ccncc3)c(-c3cc(O)cc(Cl)c3)n2)c1)Nc1ccc(Cl)c(Cl)c1 | – | – | 2.82 | 8.51 | 2.78 | 18.1 | 1.74 | 4.1 | 1.69 | 3.76 | – | – | 1.96 | 7.54 | 2.1 | 8.04 | 2.14 | 5.55 | 2.21 | 8.71
CC(/C=C/C=C/C=C/C=C/C=C/C(O)=C1/C(=O)C(CCC(=O)O)N(C)C1=O)=C\C(C)C(OC1CC(O)C(O)C(C)O1)C(C)C (centres undefined) | – | 6.07 | – | 3.68 | – | 13.6 | – | 7.15 | – | – | – | 8.47 | – | 10.5 | – | 19.4 | – | 10.1 | – | 10.4
CCCCN(CCCC)c1cc(C(=O)CCCCCN)c2ccccc2n1 | – | – | 1.76 | 3.53 | 1.63 | 3.07 | 1.78 | 3.16 | 1.66 | 3.07 | 3.2 | 7.32 | 1.78 | 3.38 | – | – | 1.91 | 3.37 | 1.76 | 3.14
CCOC(=O)/C(=C/c1cc(OC)ccc1OC)CC(=O)O | – | > 31.6 | – | – | – | > 100 | – | > 100 | – | > 100 | – | > 31.6 | – | > 100 | – | > 62.7 | – | > 100 | – | > 100
COc1cc(-c2nn(C)nc2-c2cc3ccccc3s2)cc(OC)c1OC | 0.0488 | 1.07 | 0.553 | > 100 | – | – | 0.0738 | > 100 | 0.0538 | > 100 | 0.22 | > 100 | 0.169 | > 100 | 0.0587 | > 100 | 13 | > 100 | 0.293 | > 100
COC(=O)C1=C(C(=O)Nc2cccnc2)C2OC1(C(Cc1ccccc1)Oc1ccccc1)C1OC21 (centres undefined) | 0.569 | 2.75 | 13.2 | 26.1 | 3.67 | 14.2 | 2.01 | 4.23 | 3.23 | 13.1 | 0.36 | 2.14 | 17.1 | 31.2 | – | – | 1.83 | 3.48 | 1.49 | 3
NCC(=O)Nc1ccc(-n2nc(C(F)(F)F)cc2-c2ccc3c(ccc4ccccc43)c2)cc1 | 1.3 | 3.42 | 1.32 | 2.74 | 1.65 | 3.4 | 0.761 | 2 | – | – | 0.746 | 4.16 | 0.959 | 2.41 | 0.142 | 1.71 | 1.45 | 2.81 | 1.23 | 2.54
COC(=O)C1=C2C3=C(C(=O)c4ccccc4C3=O)N(Cc3ccccc3)C2(OC(C)=O)C=CC1=O (centres undefined) | – | – | 2.94 | 13.7 | 6.78 | 30.2 | 6.25 | 24.8 | 10.6 | 32.7 | 0.378 | > 100 | 27.6 | > 100 | 14.1 | 53.9 | 27.8 | 66.7 | 8.4 | 26.4
C[CH2][Sn]1([CH2]C)[O]C2C(O)OC(CO)C(O)C2[O]1 (centres undefined) | 16.5 | 39.1 | > 100 | > 100 | 4.55 | 26.5 | 77.7 | > 100 | 17.9 | 39.6 | – | – | > 100 | > 100 | 60.3 | > 100 | 23.3 | 80.4 | 40.3 | > 100
COc1ccc(Nc2nc(NCc3ccccc3)c3ccccc3n2)cc1 | 2.04 | 4.2 | 10.1 | 22.4 | 5.19 | 19.6 | – | – | 10.1 | 23.3 | 2.76 | 9.19 | 3.78 | 16.5 | 3.69 | 19 | 2.03 | 4.1 | 3.38 | 14.1
C=CC[Se]C(=O)c1ccccc1OC(C)=O | 2.4 | 6.54 | – | – | 1.61 | 3.01 | – | – | 1.79 | 3.35 | 2.42 | 7.06 | 0.769 | > 100 | 2.12 | 5.09 | 1.85 | 3.53 | 1.76 | 3.21
CCOC(=O)CC(=O)N(c1ccc(OC)cc1)C(C(=O)OC)c1ccccc1 (centres undefined) | – | – | – | > 100 | – | > 100 | – | > 100 | – | > 100 | – | > 100 | – | > 100 | – | > 100 | – | > 100 | – | > 100
COC(=O)C1C(=O)O[C@@H](c2ccc(OC)cc2)C1C(=O)OC (some centres undefined) | – | – | – | > 100 | – | > 100 | – | > 100 | – | > 100 | – | > 100 | – | > 100 | – | – | – | > 100 | – | > 100
O=[N+]([O-])c1ccc(Oc2cccnc2)c([N+](=O)[O-])c1 | – | – | 5.95 | 27.9 | 4.3 | 23.2 | 2.43 | 6.22 | 3.75 | 17.3 | 3.22 | 24.8 | – | – | 3.75 | > 100 | 9.49 | 23.9 | 3.34 | 13
CCCCC(SC(=S)N(CC)CC)C(=O)Nc1nc(CC(=O)OCC)cs1 (centres undefined) | 28.6 | 98.5 | > 100 | > 100 | 77.8 | > 100 | 29.8 | > 100 | 29.8 | > 100 | – | – | 30.8 | > 100 | 48.5 | > 100 | 47.3 | > 100 | 67.3 | > 100
Nc1ccn(C2OC(CO[P+](=O)OC3C(CO[P+](=O)OC4C(CO[P+](=O)OC5C(CO[P+](=O)OC6C(CO[P+](=O)OC7C(CO[P+](=O)OC8C(CO[P+](=O)OC9C(CO[P+](=O)OC%10C(CO[P+](=O)OC%11C(CO)OC(n%12ccc(N)nc%12=O)C%11(F)F)OC(n%11ccc(N)nc%11=O)C%10(F)F)OC(n%10ccc(N)nc%10=O)C9(F)F)OC(n9ccc(N)nc9=O)C8(F)F)OC(n8ccc(N)nc8=O)C7(F)F)OC(n7ccc(N)nc7=O)C6(F)F)OC(n6ccc(N)nc6=O)C5(F)F)OC(n5ccc(N)nc5=O)C4(F)F)OC(n4ccc(N)nc4=O)C3(F)F)C(O)C2(F)F)c(=O)n1 (centres undefined) | – | 0.18 | 0.0175 | – | – | – | – | > 100 | – | – | – | – | – | > 100 | 0.704 | – | > 100 | > 100 | – | –
CC(=O)N(/N=C\c1ccc([N+](=O)[O-])cc1)c1ccccc1 | – | – | – | > 100 | – | > 100 | – | > 100 | – | > 100 | – | > 100 | – | > 100 | – | > 100 | – | > 100 | – | > 100
COC(=O)C1C2CC3C(OC(=O)C31)C2I (centres undefined) | – | > 100 | – | > 100 | – | > 100 | – | > 100 | – | > 100 | – | – | – | > 100 | – | > 100 | – | > 10 | – | > 100
CCOc1ccc(/C=N/Nc2cc(C)nc3ccc(Cl)cc23)cc1 | 1.86 | 3.73 | 2.31 | 6.53 | 1.82 | 3.4 | – | – | 1.79 | 3.32 | 1.47 | 3.76 | 2 | 3.72 | 1.55 | 2.94 | 1.78 | 3.19 | 1.78 | 3.17
COc1ccc(C2Cc3cc(OC)c(OC)c(OC)c3C2=O)cc1 (centres undefined) | – | – | – | > 100 | – | > 100 | – | > 100 | – | > 100 | – | > 100 | – | > 100 | – | > 100 | – | > 100 | – | > 100
CCC[CH2][Sn]([CH2]CCC)([O]C(=O)c1cc(OC)c(OC)c(OC)c1)[O]C(=O)c1cc(OC)c(OC)c(OC)c1 | – | – | 2.01 | 3.45 | 1.51 | 3.68 | 1.37 | 2.66 | 0.892 | 2.12 | 0.25 | 0.862 | 3.59 | 13.8 | – | – | 0.633 | 1.99 | 1.59 | 2.98
O=[n+]1cnn([O-])c2ccccc21 | – | – | – | 49.9 | – | > 100 | – | 36.9 | – | 39.4 | – | > 100 | – | > 100 | – | 35.6 | – | > 100 | – | 36.9
